Our source for the inhibition and IC50 values is patent US9394304B2, “Imidazopyridine derivatives” (Hoffmann-La Roche Inc., priority 2013, dated 2016).

The target of this experiment is h-TRPA1 (Homo sapiens (Human), UniProt O75762). In words: Dose response calcium flux (FLIPR) assay, ChanTest hTRPA1-CHO stably transfected cell line, cinnamaldehyde agonist. It counts as cell-based. As to conditions: for inhibition at 30 µM / inhibition at 10 µM / inhibition at 1 µM / inhibition at 3 µM: % inhibition of the inhibitor control, read-out: Inhibition % @ concentration; for IC50: CHO-K1 Tet-On TRPA1 cells, calcium flux, 100 uM cinnamaldehyde. Here is the method: IC50 Determinations of Exemplified Compounds
Dose Response Assay: ChanTest hTRPA1-CHO Stably Transfected Cell Line
To induce expression, tetracycline was added to blasticidin/zeocin-free media at a final concentration of 1 ug/ml. Experiments were run at 24 hours post induction.
Plating Conditions CHOK1/TRPA1 Cells:
Harvested cells with 0.025% trypsin/EDTA.
Resuspended cells in growth media without selection antibiotics.
Measured cell density and diluted to 2.4×10^5 cells/ml in media containing 1 ug/ml Doxycycline Plate 25 ul/well into 384 well black/clear tissue culture-treated plates.
Incubated overnight at 37° C.
Replacement Buffer: Hank's Balanced Salt Solution, 20 mM HEPES along with 0.005% BSA and 2× Probenecid
Dye Loading Buffer: Cal-3 NW Calcium dye was prepared by dissolving the contents of one vial with 500 ml Hank's Balanced Salt Solution containing 20 mM HEPES. • Control compounds for CHOK1/TRPA1 cells:
AP-18, stock 10 mM, prepare 3.5× compound dilution in a Compound Buffer (HBSS/20 mM HEPES/0.005% BSA)—final concentration 10 uM.
Working solution 4.5× (final 100 uM in Compound Buffer: HBSS/20 mM HEPES/0.005% BSA)
Compounds dilutions were prepared from 5 or 10 mM stock (100% DMSO):
Compounds were tested at either 20 μM three folds dilution 11 steps out or 30 μM two folds dilution 11 steps out.
3 μl of diluted compound were transferred into Weidmann 384-well plate in duplicates side-by-side.
Compound plates were resuspended with 100 ul of HBSS/20 mM HEPES/0.005% BSA buffer (Compound Buffer):
Growth media was removed from the cell plates (20 ul) and 20 ul of the Replacement Buffer was added followed by addition of 25 ul of diluted dye. All three steps were performed using a Plate Washer BioTek 407. The plates were then incubated for 30′ at RT.
After incubation, both the cell and compound plates were brought to the FLIPR and 20 ul of the diluted compounds/antagonist/bk were transferred to the cell plates by the FLIPR. Plates were then incubated for 30′ at room temperature. After 30′ incubation, plates were returned to the FLIPR and 20 ul of 4.5× Cinnamaldehyde was added to the cell plates. During the compound addition as well as agonist addition, fluorescence readings were taken simultaneously from all 384 wells of the cell plate every 1.5 seconds. Five readings were taken to establish a stable baseline, then 20 ul of sample was rapidly (30 ul/sec) and simultaneously added to each well of the cell plate. The fluorescence was continuously monitored before, during and after sample/agonist addition for a total elapsed time of 100 seconds (compound addition) and 120 seconds (agonist addition). Responses (increase in peak fluorescence) in each well following agonist addition was determined. The initial fluorescence reading from each well, prior to ligand stimulation, was used a zero baseline value for the data from that well.

Sequence of h-TRPA1 (O75762 whole entry): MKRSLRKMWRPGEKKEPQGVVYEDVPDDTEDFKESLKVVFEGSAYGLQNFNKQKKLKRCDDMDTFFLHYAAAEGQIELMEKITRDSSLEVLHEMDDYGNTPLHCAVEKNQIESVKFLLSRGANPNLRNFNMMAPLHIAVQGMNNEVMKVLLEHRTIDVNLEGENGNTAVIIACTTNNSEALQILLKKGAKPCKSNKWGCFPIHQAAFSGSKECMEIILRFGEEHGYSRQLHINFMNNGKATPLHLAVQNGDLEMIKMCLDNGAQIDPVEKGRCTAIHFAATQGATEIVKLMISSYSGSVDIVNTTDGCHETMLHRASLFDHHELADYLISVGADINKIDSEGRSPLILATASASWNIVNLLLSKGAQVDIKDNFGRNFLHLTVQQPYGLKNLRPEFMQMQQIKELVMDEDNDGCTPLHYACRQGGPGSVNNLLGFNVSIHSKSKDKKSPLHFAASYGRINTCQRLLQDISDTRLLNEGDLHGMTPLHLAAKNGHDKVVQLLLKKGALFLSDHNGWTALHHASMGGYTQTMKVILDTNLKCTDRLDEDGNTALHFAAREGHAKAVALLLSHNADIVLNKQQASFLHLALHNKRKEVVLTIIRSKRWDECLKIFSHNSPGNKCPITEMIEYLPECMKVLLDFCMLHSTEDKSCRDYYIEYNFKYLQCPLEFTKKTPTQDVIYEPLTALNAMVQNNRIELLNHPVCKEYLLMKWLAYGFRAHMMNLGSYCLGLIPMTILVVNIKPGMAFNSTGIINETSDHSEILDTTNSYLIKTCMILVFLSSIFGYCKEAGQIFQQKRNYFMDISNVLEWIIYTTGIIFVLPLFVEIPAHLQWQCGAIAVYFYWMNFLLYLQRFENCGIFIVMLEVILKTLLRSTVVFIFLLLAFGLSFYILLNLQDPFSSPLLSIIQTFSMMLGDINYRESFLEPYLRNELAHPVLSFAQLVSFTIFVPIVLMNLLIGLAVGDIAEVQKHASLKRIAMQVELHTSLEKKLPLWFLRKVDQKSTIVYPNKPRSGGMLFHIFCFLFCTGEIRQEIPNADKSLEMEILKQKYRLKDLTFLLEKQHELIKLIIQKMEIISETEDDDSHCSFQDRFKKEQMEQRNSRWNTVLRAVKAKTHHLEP

For orientation: IC50 means the concentration at which inhibition is half-maximal. As for `CC(C)(C)Nc1c(-c2cccc(C#N)c2)nc2ccc(C(F)(F)F)cn12` [Example 5, 3-(3-tert-Butylamino-6-trifluoromethyl-imidazo[1,2-a]pyridin-2-yl)-benzonitrile], the inhibition at 30 µM is 100% and the IC50 was determined as 854 nM.

Consider `C#Cc1cccc(-c2nc3ccc(C(F)(F)F)cn3c2NC(C)C)c1` [Example 15, [2-(3-Ethynyl-phenyl)-6-trifluoromethyl-imidazo[1,2-a]pyridin-3-yl]-isopropyl-amine], for which the inhibition at 10 µM stood at 100% and the IC50 was determined as 82 nM.

Regarding `CC(C)Nc1c(-c2cccc(Cl)c2)nc2ccc(Cl)cn12` [Example 2, [6-Chloro-2-(3-chloro-phenyl)-imidazo[1,2-a]pyridin-3-yl]-isopropyl-amine], the inhibition at 30 µM was determined as 100% and the IC50 came out at 195 nM.

With `CC(C)(C)Nc1c(-c2cccc(C#N)c2)nc2ccc(Cl)cn12` [Example 6, 3-(3-tert-Butylamino-6-chloro-imidazo[1,2-a]pyridin-2-yl)-benzonitrile], the inhibition at 10 µM was found to be 90% and the IC50 amounted to 2130 nM.

In the case of `C#Cc1cccc(-c2nc3ccc(C(F)(F)F)cn3c2NC(C)(C)C)c1` [Example 12, tert-Butyl-[2-(3-ethynyl-phenyl)-6-trifluoromethyl-imidazo[1,2-a]pyridin-3-yl]-amine], the inhibition at 1 µM is 100% and the IC50 is 110 nM.

Consider `CC(C)(C)Nc1c(-c2cccc(F)c2)nc2ccc(C(F)(F)F)cn12` [Example 4, tert-Butyl-[2-(3-fluoro-phenyl)-6-trifluoromethyl-imidazo[1,2-a]pyridin-3-yl]-amine], for which the inhibition at 3 µM is 100% and the IC50 amounted to 1330 nM.

Consider `CC(C)(C)Nc1c(-c2cc(Cl)cc(Cl)c2)nc2ccc(C(F)(F)F)cn12` [Example 11, tert-Butyl-[2-(3,5-dichloro-phenyl)-6-trifluoromethyl-imidazo[1,2-a]pyridin-3-yl]-amine], for which the inhibition at 30 µM was determined as 98% and the IC50 amounted to 1330 nM.

In the case of `COC(=O)CNc1c(-c2cccc(F)c2)nc2ccc(F)cn12` [Example 3, [6-Fluoro-2-(3-fluoro-phenyl)-imidazo[1,2-a]pyridin-3-ylamino]-acetic acid methyl ester], the inhibition at 30 µM is 74.3% and the IC50 came out at 3300 nM.

In the case of `CC(C)Nc1c(-c2cccc(Cl)c2)nc2ccc(Br)cn12` [Example 1], the inhibition at 1 µM is 100% and the IC50 came out at 132 nM.

As for `Clc1cccc(-c2nc3ccc(Cl)cn3c2NC2CC2)c1` [Example 7, [6-Chloro-2-(3-chloro-phenyl)-imidazo[1,2-a]pyridin-3-yl]-cyclopropyl-amine], the inhibition at 10 µM worked out at 100% and the IC50 came out at 1590 nM.

Turning to `CCNc1c(-c2cccc(Cl)c2)nc2ccc(C(F)(F)F)cn12` [Example 14, [2-(3-Chloro-phenyl)-6-trifluoromethyl-imidazo[1,2-a]pyridin-3-yl]-ethyl-amine], the inhibition at 30 µM stood at 100% and the IC50 was found to be 2070 nM.

With `CC(C)(C)Nc1c(-c2cccc(Cl)c2)nc2cc(C(F)(F)F)ccn12` [Example 13, tert-Butyl-[2-(3-chloro-phenyl)-7-trifluoromethyl-imidazo[1,2-a]pyridin-3-yl]-amine], the inhibition at 30 µM stood at 100% and the IC50 came to 1120 nM.

In the case of `Cc1cc(Br)cn2c(NC(C)(C)C)c(-c3cccc(Cl)c3)nc12` [Example 10, [6-Bromo-2-(3-chloro-phenyl)-8-methyl-imidazo[1,2-a]pyridin-3-yl]-tert-butyl-amine], the inhibition at 10 µM came out at 100% and the IC50 was 221 nM.

As for `CC(C)(C)Nc1c(-c2cccc(Cl)c2)nc2c(Br)cc(Cl)cn12` [Example 8, [8-Bromo-6-chloro-2-(3-chloro-phenyl)-imidazo[1,2-a]pyridin-3-yl]-tert-butyl-amine], the inhibition at 3 µM turned out to be 100% and the IC50 turned out to be 1090 nM.

In the case of `Cc1cc2nc(-c3cccc(Cl)c3)c(NC(C)(C)C)n2cc1Br` [Example 9, [6-Bromo-2-(3-chloro-phenyl)-7-methyl-imidazo[1,2-a]pyridin-3-yl]-tert-butyl-amine], the inhibition at 30 µM turned out to be 100% and the IC50 came out at 229 nM.

On to `CC(C)Nc1c(-c2cccc(Cl)c2)nc2ccc(C(F)(F)F)cn12` [Example 16, [2-(3-Chloro-phenyl)-6-trifluoromethyl-imidazo[1,2-a]pyridin-3-yl]-isopropyl-amine], for which the inhibition at 3 µM is 100% and the IC50 came to 143 nM.

Regarding `CC(C)(C)Nc1c(-c2cccc(Br)c2)nc2ccc(C(F)(F)F)cn12` [Example 17, [2-(3-Bromo-phenyl)-6-trifluoromethyl-imidazo[1,2-a]pyridin-3-yl]-tert-butyl-amine], the inhibition at 10 µM was 100% and the IC50 was found to be 264 nM.

As for `CC(C)(C)Nc1c(-c2cccc(C#N)c2)nc2ccc(F)cn12` [Example 18, 3-(3-tert-Butylamino-6-fluoro-imidazo[1,2-a]pyridin-2-yl)-benzonitrile], the inhibition at 30 µM came out at 80.9% and the IC50 is 20400 nM.
